Results reported in patent US10357577B2, “Bacterial nitroreductase enzymes and methods relating thereto” (AUCKLAND UNISERVICES LIMITED, priority 2010, dated 2019).

Legend:
[1] = test system: nitroreductase NfsA-expressing HCT116 'activator' cells; assay: MCL (multicellular layer) bystander experiment, NfsA-dependent activation; type: cell-based, human
Description: Displacement of the Target cell survival curve to the left (T to Tc) is indicative of the presence of a cytotoxic metabolite(s) able to diffusible out of the sensitive activator (A) cell population. The prodrug concentrations for 10% survival (C10) of target cells (wild-type cells) grown without activators (T), targets in co-culture (TC) and activators (nfsA-expressing cells) in co-culture (AC) were determined by interpolation. BEE-Bystander effect efficiency calculates the drugs bystander effect: ((Log C10T−Log C10TC)/(Log C10T−Log C10AC)).
The prodrug concentrations for 10% survival (C10) of target cells (wild-type cells) grown without activators (T), and targets in co-culture (TC) and activators (NTR-expressing cells) in co-culture (AC) can be determined. The bystander effect of a test prodrug is measured by the bystander effect efficiency which can be calculated using the algorithm ((Log C10T−Log C10TC)/(Log C10T−Log C10AC)).
Millicell-CM membrane inserts (Millipore) were coated in calf-skin collagen type III (Sigma-Aldrich) to facilitate cell attachment. […] After exposure, inserts were disaggregated (0.07% trypsin, 10 min, 37° C., followed by 100 μg/ml DNAase I (Sigma-Aldrich). Cells were counted, resuspended and plated in P60 dishes to determine clonogenic survival. To discriminate clonogenic activator (NTR+) from target (NTR−) colonies cells were plated in non-selective medium (total cells) and medium containing 1 μM puromycin (activator cells). Colonies were grown in a 37° C. 5% CO2 incubator for 10 days before staining with methylene blue (2 g/liter in 50% v/v aqueous ethanol). Colonies containing >50 cells were counted as clonogenic survivors. Surviving fractions for each population was calculated as the plating efficiency for drug-treated MCLs/untreated controls. The drug concentrations for 10% survival (C10) of target cells grown without activators (T), targets in co-culture (Tc) and activators in co-culture (Ac) was determined by interpolation.

[2] = test system: HCT-116 cells stably expressing E. coli NfsA; assay: Flow cytometry / fluorescent imaging of EF5 retention in vitro; type: cell-based, human
Description: (§1) FIG. 11 illustrates the results of flow cytometry analysis and fluorescent imaging of stably-expressing E. coli NTR cells after in vitro EF5 exposure. 1×10^6 cells were seeded into a 6-well plate and incubated with 20 μM EF5 for 2 hrs at 37° C. Cells were fixed and stained, then analysed by flow cytometry and imaged using a Nikon2000 fluorescent microscope.
(§2) FIG. 13 illustrates the results of flow cytometry analysis of HCT-116 cells stably expressing E. coli NfsA and NfsB after in vitro dose-response to EF5 exposure. 1×10^6 cells were incubated with varying concentrations of EF5 in oxic conditions. Samples were fixed and stained with EF5 antibody Alexa 488 ELK3.51 at 100 μg/ml. Samples were then analysed on a Becton Dickinson FACscan flow cytometer. Values are mean±SEM of two independent experiments. Representative histograms at multiple EF5 dose levels.
(§3) In vitro: 1×10^6 cells were drug treated (EF5 or PIMO) for 1-2 hrs, harvested by trypsinisation, fixed with 4% buffered PFA (pH 7.4, 1 hr). In vivo: Tumour xenograft cells were isolated by enzymatic dissociation (2.5 mg/ml pronase, 1 mg/ml collagenase and 0.2 mg/ml DNAse) and immediately fixed with 4% buffered PFA (pH 7.4, 1 hr). and transferred to 70% ethanol (−20° C., overnight). Cells were resuspended in 1% BSA/PBS and permeabilised with 0.2% Triton X-100 (30 min, RT), blocked in 10% BSA/PBS (30 min, RT) and resuspended in primary antibody for 2 hr (37° C.). The primary antibody was either anti-EF5 mouse monoclonal (ELK 3.51) conjugated with CY5 or Alexa-488 diluted to 100 μg/ml in blocking buffer (according to instruction in Koch C., 2008, Rad Res, 169 (6): 677-688) or Hypoxyprobe-1 (Chemicon Int) mouse monoclonal anti-pimonidazole antibody (clone 4.3.11.3) conjugated with FITC and diluted 1:100 in blocking buffer. Cells were washed in blocking buffer and resuspended in blocking buffer containing 100 μg/ml RNAase and analysed using a Becton Dickinson FACscan flow cytometer (MA, USA) with Cell Quest software using forward scatter and side scatter to gate out cell debris and tumour cells. Integrated fluorescence measurements were recorded for 30,000 single non-debris events.
(§4) In vitro: 3-4 drops of cell suspension prepared for flow cytometry was added to a cytospin chamber containing a poly-I-lysine coated slide and spun for 5 minutes at low acceleration (500 rpm) in a cytospinner. Cells were left to dry and mounted with coverslips using Prolong Gold antifade (Invitrogen) and sealed with nail varnish.

[3] = test system: HCT-116 cells stably expressing E. coli NfsB; assay: as above; type: cell-based, human
Description: as §1, §2, §3, §4

[4] = test system: HCT-116 cells expressing human cytochrome P450 reductase (CYPOR); assay: Flow cytometry of EF5 retention in vitro; type: cell-based; conditions: increasing EF5 concentrations, oxic, monolayer
Description: as §3

E. coli NfsA = target: T1, E. coli NfsA (Escherichia coli, UniProt P17117); assay: Purified enzyme kinetics (NADPH oxidation at 340 nm); type: biochemical; conditions: 0.25 mM NADPH, varying EF5
T1 construct: his6; made in house
T1 sequence (P17117 whole entry): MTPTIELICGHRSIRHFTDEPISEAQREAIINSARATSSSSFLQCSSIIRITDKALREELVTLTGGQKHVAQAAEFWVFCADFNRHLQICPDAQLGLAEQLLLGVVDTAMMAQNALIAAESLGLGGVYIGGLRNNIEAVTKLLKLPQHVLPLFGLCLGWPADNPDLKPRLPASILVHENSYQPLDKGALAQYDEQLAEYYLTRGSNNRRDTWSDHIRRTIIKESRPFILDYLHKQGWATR
Description: FIG. 12 illustrates the purified enzyme kinetic data for eleven E. coli nitroreductases with EF5 as a substrate. Reactions contained 10 mM Tris-Cl (pH 7.0), 4% DMSO, 0.25 mM NADPH and varying EF5 concentrations. Reactions were initiated by addition of 10 μl enzyme and changes in absorbance were measured for 15 s at 340 nm on a spectrophotometer to monitor NTR-catalysed NADPH oxidation.
For EF5 and other 2-NI bio-imaging agents, steady-state enzyme kinetics with purified NTRs were assessed spectrophotometrically at 340 nm to monitor NTR catalyzed NADPH oxidation. The molar extinction co-efficient of NADPH (6,220 M^−1 cm^−1) was used for the calculation of enzyme activity. For PR-104A, reduction was measured directly at 400 nm (ε=6,000 M^−1 cm^−1); and for CB1954, reduction was measured directly at 420 nm (ε=1,200 M^−1 cm^−1). Reactions were performed in 100 μl in UVettes (Eppendorf), using the 2 mm light path length. Reactions contained 10 mM Tris-Cl (pH 7.0), 4% DMSO, 0.25 mM NADPH and varying EF5 or PR-104A concentrations. Reactions were initiated by addition of 10 μl enzyme and changes in absorbance were measured for 15 s (during linearity). For calculation of Km and kcat, substrate concentrations were varied from ˜0.2×Km to 5×Km. Non-linear regression analysis and Michaelis-Menten curve fitting was performed using Sigmaplot 10.0 (Systat Software Inc.).

[5] = cited from earlier work
[6] = increasing EF5 concentrations, oxic, monolayer

O=C(Cn1ccnc1[N+](=O)[O-])NCC(F)(F)C(F)(F)F [EF5, 2-(2-nitro-1H-imidazol-1-yl)-N-(2,2,3,3,3-pentafluoropropyl)acetamide]
bystander property (in words) ([1]; MCL of NTR-expressing and parental HCT116 cells): zero bystander property
concentration-time giving 90% loss of viability for nfsA expressing HCT116 cells ([1]; cold (radiolabel-free) EF5): 0.7 mM-hr
estimated bystander effect efficiency (BEE) ([1]; hyperoxic (95% O2) MCLs, at concentrations achievable in α-MEM+10% FBS, activator fraction differs per experiment): 0%
cellular retention of EF5 (in words) ([2]; 20 μM EF5, 2 h, aerobic): greatest retention
retention of EF5, dose-response (in words) [2, 6]: clearly superior
cellular retention of EF5 (in words) ([3]; 20 μM EF5, 2 h, aerobic, compared to parental cells): minor EF5 retention
activity towards EF5, dose-response (in words) [3, 6]: minimal activity
activity towards EF5, dose-response (in words) [4]: minimal activity
enzyme kinetics with EF5 as substrate, rank among 11 E. coli NTRs (in words) (E. coli NfsA): highest kcat and kcat/Km ratio
tolerability (in words) ([5]; EF5 21 mg/kg, injected): without any toxicities
concentration-time achieved in human plasma ([5]; cold EF5 9 mg/kg): 0.89 mM-hr
